From US11866458B2, “Panaxadiol glycoside derivative and preparation method and application thereof” (SUZHOU JI ER BIOLOGICAL MEDICINE CO., LTD., priority 2018, dated 2024)
Marks after values point to notes of the source that are not given here.

Tests used:
[1] = test system: mouse asthma model induced by OVA; test: Asthma induced by ovalbumin in Balb/c mice: IgE level in serum by ELISA; type: in vivo; details: oral; for content of IgE in mice serum (conclusion in words): model of mouse asthma induced by OVA, samples; for therapeutic effect on bronchial asthma induced by OVA: mouse
[2] = test system: COPD rats induced by smoke exposure; test: COPD induced by smoke exposure in rats: lung function FEV0.2/FVC; type: in vivo, Wistar rats; details: for FEV2/FVC % (FEV0.2/FVC %, forced expiratory index within 200 ms): 180 days; for effect in COPD rats compared with inhaled budesonide: high dose group, oral
[3] = test system: inflammatory cells in bronchoalveolar lavage fluid of mice; test: Determination of inflammatory cells in bronchoalveolar lavage fluid of mice (OVA asthma model); type: in vivo, BALB/C mice; design: unit not given here
Description: 144 6-week-old BALB/C mice (18-20 g) were divided into 24 groups: control group, placebo group, dexamethasone group (3 mg/kg) and the drug groups. There were 6 in each group. The control group was given normal saline without any treatment. The other groups were sensitized by intraperitoneal injection of OVA 20 μg and aluminum hydroxide 200 μL PBC (2 mg, prepared into emulsion). […] On day 21, 22 and 23, the therapeutic agent (i.e. 3 mg/kg dexamethasone in the positive control group and oral administration in the drug group) was given orally. From day 17 to 23, PBS was given to the control group and placebo group respectively, PBS (without OVA) was given to the control group. On day 0 and day 14, the normal saline was nebulized for 30 minutes to remove the aluminum hydroxide on day 21, 22 and 23 See in Table 2.

[4] = test system: ICR mice; test: Blood routine test after 6 days of intragastric administration; details: 1.8 mg/kg
Description: Mice were intragastric administration for 6 consecutive days, and sufficient blood samples were taken for blood routine test 1 hour after the last dose.

[5] = test system: ICR mice; test: Blood glucose of caudal vein after 6 days of intragastric administration; details: 1.8 mg/kg
Description: The mice were intragastric administration for 6 consecutive days, fasting was started at about 8:00 in the morning on the sixth day, and blood glucose in caudal vein was measured at about 4:00 in the next day.

[6] = Table 1-1 (1st time), 20 mg/kg, 24 hours after last OVA stimulation
[7] = 3 mg/kg, oral (positive control)

SMILES	Concentration of IgE in serum [1, 6] [ng/mL]	Concentration of IgE in serum ([1]; Table 1-2 (2nd time), 15 mg/kg) [ng/mL]	Concentration of IgE in serum ([1]; Table 1-2 (2nd time), 30 mg/kg) [ng/mL]	Concentration of IgE in serum ([1]; Table 1-2 (2nd time), 60 mg/kg) [ng/mL]	FEV2/FVC % (FEV0.2/FVC %, forced expiratory index within 200 ms) ([2]; 20 mg/kg oral) [%]	FEV2/FVC % (FEV0.2/FVC %, forced expiratory index within 200 ms) ([2]; 40 mg/kg oral) [%]	FEV2/FVC % (FEV0.2/FVC %, forced expiratory index within 200 ms) ([2]; 80 mg/kg oral) [%]	effect in COPD rats compared with inhaled budesonide [2]	Acidic cells in bronchoalveolar lavage fluid ([3]; 2 mg/kg, oral)	Neutral cells in bronchoalveolar lavage fluid ([3]; 2 mg/kg, oral)	Total inflammatory cells in bronchoalveolar lavage fluid ([3]; 2 mg/kg, oral)	lymphocyte in bronchoalveolar lavage fluid ([3]; 2 mg/kg, oral)	Acidic cells in bronchoalveolar lavage fluid ([3]; 20 mg/kg, oral)	Neutral cells in bronchoalveolar lavage fluid ([3]; 20 mg/kg, oral)	Total inflammatory cells in bronchoalveolar lavage fluid ([3]; 20 mg/kg, oral)	lymphocyte in bronchoalveolar lavage fluid ([3]; 20 mg/kg, oral)	Acidic cells in bronchoalveolar lavage fluid ([3]; 200 mg/kg, oral)	Neutral cells in bronchoalveolar lavage fluid ([3]; 200 mg/kg, oral)	Total inflammatory cells in bronchoalveolar lavage fluid ([3]; 200 mg/kg, oral)	lymphocyte in bronchoalveolar lavage fluid ([3]; 200 mg/kg, oral)	further results
CC(C)=CCC[C@](C)(O[C@@H]1OC(CO)[C@H](O)[C@H](O)C1O)C1CC[C@]2(C)C1C(=O)CC1[C@@]3(C)CC[C@H](O)C(C)(C)C3CC[C@]12C (stereo partly drawn) [IC, 3p-hydroxyl-20(S)—O-β-D-galactopyranosyl dammarane-24-ene-12-one]	975.82 ± 260.32	1908.70 ± 221.74	1738.93 ± 124.22	1575.92 ± 148.33	65.45 ± 14.17	76.64 ± 7.98	83.15 ± 8.42	superior to budesonide	31.51 ± 16.14	13.29 ± 7.12	50.77 ± 32.49	9.30 ± 6.85	18.44 ± 7.78	8.16 ± 5.03	32.95 ± 21.07	6.49 ± 5.28	8.72 ± 3.31	5.17 ± 3.19	18.25 ± 9.48	3.77 ± 2.81	
CC(=O)OCC(=O)[C@@]1(O)[C@H](C)C[C@H]2[C@@H]3CCC4=CC(=O)C=C[C@]4(C)[C@@]3(F)[C@@H](O)C[C@@]21C [Dexamethasone acetate tablets, Dexamethasone acetate]																					leukocyte count compared to blank control group [4]: decreased significantly; lymphocyte percentage compared to blank control group [4]: decreased significantly; monocyte percentage compared to blank control group [4]: increased significantly; neutrophil percentage compared to blank control group [4]: increased significantly; Ba % ([4]; intragastric, 6 days): 0.04 ± 0.03%; Eo % ([4]; intragastric, 6 days): 0.09 ± 0.02%; Ly % ([4]; intragastric, 6 days): 42.59 ± 28.17 %; Mo % ([4]; intragastric, 6 days): 12.08 ± 6.28 %; Ne % ([4]; intragastric, 6 days): 45.17 ± 16.22 %; WBC ([4]; intragastric, 6 days, 1 hour after last dose): 1.26 ± 0.49** 10^2/mm^3; blood glucose in mice compared with blank control group [5]: increase blood glucose; Blood glucose ([5]; intragastric, 6 days, fasted, caudal vein): 5.78 ± 0.36 mmol/L; Concentration of IgE in serum ([1]; Table 1-1 (1st time), 0.6 mg/kg, 24 hours after last OVA stimulation): 1131.05 ± 211.85 ng/mL; Concentration of IgE in serum ([1]; Table 1-2 (2nd time), 0.6 mg/kg): 1367.07 ± 103.80 ng/mL; Acidic cells in bronchoalveolar lavage fluid [3, 7]: 7.49 ± 5.25; Neutral cells in bronchoalveolar lavage fluid [3, 7]: 9.64 ± 5.16; Total inflammatory cells in bronchoalveolar lavage fluid [3, 7]: 36.12 ± 14.89; lymphocyte in bronchoalveolar lavage fluid [3, 7]: 8.46 ± 5.73
CC(C)=CCC[C@](C)(O[C@@H]1OC(CO)[C@@H](O)[C@H](O)C1O)C1CC[C@]2(C)C1/C(=N\O)CC1[C@@]3(C)CC/C(=N\O)C(C)(C)C3CC[C@]12C (stereo partly drawn) [IVA, 20(S)—O-β-D-glucopyranosyl dammarane-3,12-hydroxyl imino-24-ene-12-one]	1358.27 ± 248.70	2026.13 ± 273.15	1927.60 ± 151.61	1723.86 ± 167.59	66.25 ± 11.49	75.98 ± 9.26	88.33 ± 12.49	superior to budesonide	29.09 ± 4.83	9.15 ± 5.68		15.35 ± 9.23	15.83 ± 2.88	7.38 ± 3.09	32.46 ± 17.21	5.24 ± 3.34	4.45 ± 2.14	6.17 ± 4.09	14.69 ± 5.77	4.19 ± 3.48	
CC(C)=CCC[C@](C)(O[C@@H]1OC(CO)[C@@H](O)[C@H](O)C1O)C1CC[C@]2(C)C1C(=O)CC1[C@@]3(C)CC[C@H](O)C(C)(C)C3CC[C@]12C (stereo partly drawn) [IB, 3β-hydroxyl-20(S)—O-β-D-glucopyranosyl dammarane-24-ene-12-one]	1337.11 ± 216.28	2023.33 ± 203.47	1909.19 ± 121.73	1769.13 ± 164.34	65.14 ± 12.78	73.59 ± 10.81	82.16 ± 9.01	superior to budesonide	31.19 ± 8.46	12.11 ± 7.22	46.76 ± 25.18	10.07 ± 6.12	9.35 ± 4.16		25.18 ± 13.12	7.53 ± 4.95	5.14 ± 3.08	3.49 ± 2.37	12.53 ± 6.23	3.75 ± 2.18	
CC(C)=CCC[C@](C)(O[C@@H]1OC(C)[C@H](O)[C@H](O)C1O)C1CC[C@]2(C)C1[C@H](O)CC1[C@@]3(C)CC[C@H](O)C(C)(C)C3CC[C@]12C (some centres unmarked) [IK]	1020.78 ± 136.94	1720.54 ± 165.49	1406.28 ± 171.05	1217.43 ± 162.75	67.67 ± 11.39	78.59 ± 6.12	85.56 ± 10.07	superior to budesonide													content of IgE in mice serum (conclusion in words) [1]: significantly reduce; therapeutic effect on bronchial asthma induced by OVA [1]: obvious therapeutic effect
CC(C)=CCC[C@](C)(O[C@H]1OC(CO)[C@@H](O)[C@H](O)C1O)C1CC[C@]2(C)C1C(=O)CC1[C@@]3(C)CC[C@H](O)C(C)(C)C3CC[C@]12C (stereo partly drawn) [ID, 3β-hydroxyl-20(S)—O-α-D-mannopyranosyl dammarane-24-ene-12-one]	1336.96 ± 211.85	1571.67 ± 134.04	1427.83 ± 164.28	1264.95 ± 127.60	66.28 ± 13.54	75.23 ± 10.71	86.34 ± 8.60	superior to budesonide	34.15 ± 18.88	13.18 ± 7.76	46.39 ± 22.74	14.38 ± 8.71	15.17 ± 8.34	6.26 ± 4.73	29.46 ± 13.56	8.92 ± 6.89	6.79 ± 3.87	4.39 ± 3.13	13.81 ± 6.76	4.16 ± 317	content of IgE in mice serum (conclusion in words) [1]: significantly reduce; therapeutic effect on bronchial asthma induced by OVA [1]: obvious therapeutic effect
CC(C)=CCC[C@](C)(O[C@@H]1OC[C@@H](O)[C@H](O)C1O)C1CC[C@]2(C)C1[C@H](O)CC1[C@@]3(C)CC[C@H](O)C(C)(C)C3CC[C@]12C (stereo partly drawn) [IJ, 20-O-β-D-xylopyranosyl-20(S)-panaxadiol glycoside]	1250.07 ± 144.38	2068.41 ± 153.29	1824.85 ± 155.74	1622.18 ± 130.38	65.78 ± 12.35	77.57 ± 9.69	84.36 ± 7.10	superior to budesonide													
